A melting point compilation (Tetko et al.; mined from patent text by program, amines drawn as free bases though some values may be those of a salt)

Compound | melting point [°C]
Cc1cc(S(=O)(=O)NCC(C)C)c2c(C)ccc(C(C)C)cc1-2 | 117 to 118
C=CC(=O)NC(=O)N1CC1C#N (stereo not drawn) | 158 to 160
CCCCc1oc2ccc(C#N)cc2c1C(=O)c1ccc(O)cc1 | 152 to 153
Cn1nc(-c2c(F)cccc2Cl)nc1-c1ccc(COc2ccc(C(F)(F)F)cc2Cl)c(Cl)c1 | 113 to 114
CC1=C(C)C(=O)C(C(CCCCCC(=O)NCC(=O)O)c2ccccc2)=C(C)C1=O (stereo not drawn) | 162 to 164
CC(C)(C)c1cc(CCc2ccccc2NC(=O)NC(c2ccccc2)c2ccccc2)cc(C(C)(C)C)c1O | 187
CCCCc1ccc(C(=O)Oc2ccc(C#N)c(F)c2)nc1 | 45.1 to 46.1
CC#Cc1ccc(NC(=O)c2cccnc2NCc2ccc(OC)nc2)cc1C(F)(F)F | 109 to 111
Cc1c(Br)c2c(c(C)c1NC(=O)CC(C)(C)C)C(c1ccc(C(C)C)cc1)CS2 (stereo not drawn) | 207 to 208
N#Cc1ccc(C2=Nc3ccccc3C(=O)C2=Cc2ccncc2)cc1 | 154 to 156
CCOCC(C)(C)COc1ccc(-c2ccc3c(c2)C=C(C(=O)Nc2ccc(CN(C)C4CCOCC4)cc2)CCS3(=O)=O)cc1 | 209 to 210
CS(=O)(=O)c1ccc(-c2nn3c4c(oc3c2-c2ccc(F)cc2)CCCC4)cc1 | 183 to 184
CC(C)(C)OC(=O)NC(=N)NC(=O)OC(C)(C)C | 144
CN(C)c1ccc(OCC(=O)c2cccc(Cl)c2)cc1 | 69 to 70
CN(C)c1ncc(-c2cccc(Nc3ccc(-c4ccco4)cc3[N+](=O)[O-])c2)cn1 | 160 to 161
O=C(Cl)C(=O)N1CCOC1=O | 57
NS(=O)(=O)c1ccccc1CCl | 156 to 158
Cc1ccc(C(=O)O)c(F)c1C1=NC(C)(C(C)C)C(=O)N1 (stereo not drawn) | 164 to 170
Cc1cccc(C)c1NC(=O)CN1CCCC1=O | 153 to 154
Cc1c(CCC(=O)c2cn(Cc3ccccc3)c3ccccc23)ncn1C(c1ccccc1)(c1ccccc1)c1ccccc1 | 186 to 188
Cc1ccc(S(=O)(=O)CCCc2c[nH]c([N+](=O)[O-])n2)cc1 | 108 to 111
Cc1ccccc1CCc1nc2cc(Cl)c(S(N)(=O)=O)cc2[nH]1 | 205 to 208

Further lines, results first:

melting point [°C] | Compound
240 to 242 | CC(=O)c1c(C)nc(C)n1-c1cc(C)c2[nH]c(=O)ccc2c1
107 to 109 | COc1ncnc(OC)c1C(C(C)C)N(C)C(=O)Cc1ccc(Cl)cc1 (stereo not drawn)
159 to 160 | CCOP(=O)(/C=C/c1cn(-c2ccccc2)nc1OCc1ccc(OCc2nc(N3CCC(C(=O)O)CC3)sc2C)c(OC)c1)OCC
119 | CC(=O)C(C)Oc1cc(-n2c(=O)cc(C(F)(F)F)n(C)c2=O)c(F)cc1Br (stereo not drawn)
141 to 144 | CCN1Cc2ccccc2C(=O)c2cc(CC(=O)O)ccc21
65 to 67 | CN(CCCNC(=O)NCCCOc1cccc(CN2CCCCC2)c1)CCC(c1ccc(F)cc1)c1ccccn1 (stereo not drawn)
89 to 93 | CC(=O)NCCS(=O)C1(Cl)CC2CC(=O)N2C1C(=O)OCc1ccccc1 (stereo not drawn)
> 200 | NNC(=O)c1ccc(N2CCNC2=O)cc1
262 | Fc1cc(-c2cc(C(F)(F)F)n3ncc(-c4ccncc4)c3n2)ccc1C(F)(F)F
131 to 135 | CC(C)CCN1CCC(CNC(=O)c2cc(Cl)c(N)[nH]c2=O)CC1
97 to 99 | COC(=O)CCC(C)C(=O)N[C@@H](C)C(=O)OCc1ccccc1 (stereo partly drawn)
58 to 61 | Cc1ccc(SC(CCCCCc2ccc(Cl)cc2)C(=O)O)cc1 (stereo not drawn)
230 to 231 | O=C(O)c1cc(Cl)c(O)c(O)c1Cl
162 | CC(O)Cn1cc(-c2ccccc2)c2ccccc2c1=O (stereo not drawn)
186 to 188 | Brc1cnc2c(Br)cncc2c1
148 to 150 | CN1CCC(C(=O)N2CCC(c3[nH]nc4c3C(=O)c3c(NC(=O)NN5CCOCC5)cccc3-4)CC2)CC1
